Laboratory results reported in ChEMBL document CHEMBL3885881, “DrugMatrix”.

Organism: Rattus norvegicus
Test: DrugMatrix - Regimen: Daily Repeat
Assay type: toxicity, organism-based, Sprague-Dawley
Design: regimen Daily Repeat, gender Male, age 6-8 weeks
Details: in vivo, po, 41 mg/kg, route oral GAVAGE, dose level Low, vehicle 100 % WATER; for ABSOLUTE BASOPHIL / ABSOLUTE EOSINOPHIL / ABSOLUTE LYMPHOCYTE / ABSOLUTE MONOCYTE / ABSOLUTE SEGMENTED NEUTROPHIL / BASOPHIL / EOSINOPHIL / ERYTHROCYTE COUNT / HEMATOCRIT / HEMOGLOBIN / LEUKOCYTE COUNT / LYMPHOCYTE / MEAN CORPUSCULAR HEMOGLOBIN / MEAN CORPUSCULAR HEMOGLOBIN CONCENTRATION / MEAN CORPUSCULAR VOLUME / MONOCYTE / NEUTROPHIL / NUCLEATED RED BLOOD CELLS / PLATELET COUNT: tissue Blood; for ALANINE AMINOTRANSFERASE / ALBUMIN / ALKALINE PHOSPHATASE / ASPARTATE AMINOTRANSFERASE / BLOOD UREA NITROGEN / CARBON DIOXIDE / CHLORIDE / CHOLESTEROL / CREATINE PHOSPHOKINASE / CREATININE / GLUCOSE / LACTATE DEHYDROGENASE / LIPASE / PHOSPHORUS / POTASSIUM / SODIUM / TOTAL BILIRUBIN / TOTAL PROTEIN / URIC ACID: tissue Plasma

## CC(O)(P(=O)(O)O)P(=O)(O)O [ETIDRONIC ACID]
72 h, time 3 day
  ABSOLUTE BASOPHIL: 0 CELLS/uL
  ABSOLUTE EOSINOPHIL: 0 CELLS/uL
  ABSOLUTE LYMPHOCYTE: 15847 CELLS/uL
  ABSOLUTE MONOCYTE: 485 CELLS/uL
  ABSOLUTE SEGMENTED NEUTROPHIL: 1868 CELLS/uL
  BASOPHIL: 0%
  EOSINOPHIL: 0%
  ERYTHROCYTE COUNT: 5.74 x10E6/uL
  HEMATOCRIT: 35.63%
  HEMOGLOBIN: 13.33 G/DL
  LEUKOCYTE COUNT: 18.2 x10E3/uL
  LYMPHOCYTE: 86.67%
  MEAN CORPUSCULAR HEMOGLOBIN: 23.27 pg
  MEAN CORPUSCULAR HEMOGLOBIN CONCENTRATION: 37.43 G/DL
  MEAN CORPUSCULAR VOLUME: 62.13 fL
  MONOCYTE: 2.67%
  NEUTROPHIL: 10.67%
  NUCLEATED RED BLOOD CELLS: 0 /100WBC
  PLATELET COUNT: 1274.67 x10E3/uL
  ALANINE AMINOTRANSFERASE: 42.33 u/L
  ALBUMIN: 4.67 G/DL
  ALKALINE PHOSPHATASE: 379 u/L
  ASPARTATE AMINOTRANSFERASE: 79 u/L
  BLOOD UREA NITROGEN: 20.67 mg/dL
  CARBON DIOXIDE: 24 mmol/L
  CHLORIDE: 100 MEQ/L
  CHOLESTEROL: 62.33 mg/dL
  CREATINE PHOSPHOKINASE: 167.33 u/L
  CREATININE: 0.19 mg/dL
  GLUCOSE: 153 mg/dL
  LACTATE DEHYDROGENASE: 126 u/L
  LIPASE: 9.33 u/L
  PHOSPHORUS: 12.13 mg/dL
  POTASSIUM: 7.21 MEQ/L
  SODIUM: 143.1 MEQ/L
  TOTAL BILIRUBIN: 0.2 mg/dL
  TOTAL PROTEIN: 5.6 G/DL
  URIC ACID: 1.7 mg/dL
120 h, time 5 day
  ABSOLUTE BASOPHIL: 0 CELLS/uL
  ABSOLUTE EOSINOPHIL: 0 CELLS/uL
  ABSOLUTE LYMPHOCYTE: 11460.33 CELLS/uL
  ABSOLUTE MONOCYTE: 399 CELLS/uL
  ABSOLUTE SEGMENTED NEUTROPHIL: 1374 CELLS/uL
  BASOPHIL: 0%
  EOSINOPHIL: 0%
  ERYTHROCYTE COUNT: 5.69 x10E6/uL
  HEMATOCRIT: 35%
  HEMOGLOBIN: 13.13 G/DL
  LEUKOCYTE COUNT: 13.23 x10E3/uL
  LYMPHOCYTE: 86.67%
  MEAN CORPUSCULAR HEMOGLOBIN: 23.1 pg
  MEAN CORPUSCULAR HEMOGLOBIN CONCENTRATION: 37.57 G/DL
  MEAN CORPUSCULAR VOLUME: 61.53 fL
  MONOCYTE: 3%
  NEUTROPHIL: 10.33%
  NUCLEATED RED BLOOD CELLS: 0 /100WBC
  PLATELET COUNT: 1338.67 x10E3/uL
  ALANINE AMINOTRANSFERASE: 43 u/L
  ALBUMIN: 4.23 G/DL
  ALKALINE PHOSPHATASE: 323.33 u/L
  ASPARTATE AMINOTRANSFERASE: 88.33 u/L
  BLOOD UREA NITROGEN: 18.67 mg/dL
  CARBON DIOXIDE: 23 mmol/L
  CHLORIDE: 108.5 MEQ/L
  CHOLESTEROL: 50 mg/dL
  CREATINE PHOSPHOKINASE: 367.67 u/L
  CREATININE: 0.18 mg/dL
  GLUCOSE: 149.33 mg/dL
  LACTATE DEHYDROGENASE: 265.67 u/L
  LIPASE: 8.5 u/L
  PHOSPHORUS: 10.7 mg/dL
  POTASSIUM: 5.74 MEQ/L
  SODIUM: 146.55 MEQ/L
  TOTAL BILIRUBIN: 0.2 mg/dL
  TOTAL PROTEIN: 5.8 G/DL
  URIC ACID: 1.53 mg/dL
